# According to patent US20150031656A1, “COMBINATION THERAPY FOR TREATING ANDROGEN DEFICIENCY” (REPROS THERAPEUTICS INC., priority 2012, published 2015):
# Several values for one entry are separate records, joined by “and”; a condition that tells them apart may be missing. Equal values may be shown once. Where a name gives a salt, the structure may show the parent alone. Read-outs that look alike come from different tables or passages of the source.
# Columns and labels:
# total testosterone = assay: Placebo controlled study of Androxal vs Androgel in hypogonadal men: testosterone; type: in vivo, human; conditions: for mean increase in testosterone from baseline: oral, two weeks
# Procedure: (§1) Half of the men in each of the Androxal™ and placebo arms were randomized into cohorts that underwent in-clinic sessions on days 1 and 14 to determine pharmacokinetic parameters for Androxal™ as well as cyclical changes in testosterone. The placebo and Androxal™ doses were administered in a double blind fashion. […] Following the two week drug exposure patients were followed for an additional seven to ten days to determine the status of their testosterone levels.
# serum LH = assay: Androxal vs Androgel in hypogonadal men: serum LH; type: in vivo, human
# Procedure: as §1
# serum FSH = assay: Androxal vs Androgel in hypogonadal men: serum FSH; type: in vivo, human; conditions: two weeks treatment and follow-up
# Procedure: as §1
# [1] = system: serum dihydroxytestosterone (DHT); assay: Androxal vs Androgel in hypogonadal men: DHT to total testosterone ratio; type: in vivo, human; conditions: men on Androxal 50 mg; placebo group ratio 1.07
# Procedure: as §1
# triglycerides = assay: Androxal vs Androgel in hypogonadal men: triglycerides; type: in vivo, human; conditions: men on Androxal, non-dose dependent, after two weeks of therapy
# Procedure: as §1
# [2] = Androxal vs Androgel in hypogonadal men: side effects; conditions: two week exposure
# Procedure: as §1
# morning testosterone = assay: Androxal vs Testim, three month placebo-controlled trial: morning testosterone; type: in vivo, human; conditions: for Median Morning Testosterone, Baseline T: before dosing; for Median Morning Testosterone, Baseline T / Median Morning Testosterone, Final T: no unit in table; for Median Morning Testosterone, Final T: end of three month dosing
# Procedure: (§2) Over 900 men were screened to achieve a total of 108 men who met all criteria and were enrolled in the study. All 108 men enrolled in the study satisfied the requirement of at least one dose and one visit in which efficacy measures could be assessed. The subjects were randomized into four groups: (i) placebo; (ii) 12.5 mg Androxal; (iii) 25 mg Androxal; and (iv) Testim. There was no statistical difference among the groups in testosterone at baseline.
# sperm counts = assay: Androxal vs Testim, three month trial: sperm counts; type: in vivo, human
# Procedure: as §2
# Sperm counts were assessed at baseline and after dosing was completed. Spermatogenesis is approximately a 64 day cycle and detection of early changes after 3 months of treatment would be expected. At baseline, the median values of all four arms were above the generally accepted lower level of sperm counts for normal males (20 million sperm per ml). […] The median sperm count for the men in the combined Androxal arms was 93.8 million sperm/ml (p value=0.001 compared to Testim). […] No drug related serious adverse effects occurred that led to discontinuation.
# [3] = Androxal vs Testim, three month trial: tolerability; type: in vivo, human; conditions: both doses (12.5 and 25 mg), three months
# Procedure: as §2
# serum testosterone = assay: Androxal vs Testim, 6 month spermatogenesis trial: serum testosterone; type: in vivo, human; conditions: after 3 months of treatment, sustained for another 3 months
# Procedure: (§3) The mean age of the subjects was 46 years and mean body weight was 233 pounds. […] Subjects were required to discontinue topical exogenous testosterone for at least 30 days prior to receiving study medication. Effects of the treatment on sperm parameters associated with fertility as well as on FSH and LH levels were evaluated following 3 and 6 months of therapy and one month after cessation of treatment. Semen analysis included semen volume, total sperm count, sperm concentration, percent motility and percent normal morphology. There were 6 laboratory visits including a screening (V1), baseline (V2) and post first dose visits at 1 month (V3), 3 months (V4) and 6 months (V5) as well as a one month post therapy follow-up visit (V6).
# LH and FSH = assay: Androxal vs Testim, 6 month spermatogenesis trial: LH and FSH; type: in vivo, human; conditions: secondary hypogonadal men, 3 and 6 months of therapy
# Procedure: as §3
# [4] = Androxal vs Testim, 6 month spermatogenesis trial: tolerability; type: in vivo, human; conditions: 6 months of drug therapy
# Procedure: as §3
# testosterone = conditions: for 24 hr T <300 ng/dl @ Week 6 / Any T >1100 ng/dl @ Week 6: number of men
# Procedure: Sixty men with testosterone levels not exceeding 350 ng/dl were enrolled in the study and randomized to one of four parallel arms: (i) 6.25 mg Androxal (ii) 12.5 mg Androxal (iii) 25 mg Androxal or (iv) Androgel. The average age of men in the study was 53.1 (10.1) and their average body mass index (BMI) was 31.8 (6.1). The men were dosed for 6 weeks and then followed for an additional 7 days after cessation of treatment. Subjects in all arms visited the clinic every 2 weeks for assessments. Twenty-four hour assessments were made at baseline before dosing commenced and after 6 weeks of treatment, at which point testosterone and LH were assessed hourly.
# total serum testosterone = conditions: for effect on total serum testosterone (in words): baboons; for effect on total serum testosterone (in words) / Serum Testosterone Levels, 12 days, group mean: 1.5 mg/kg for 12 days; for Serum Testosterone Levels, 6 days / Serum Testosterone Levels, 12 days / Serum Testosterone Levels, wash-out / Serum Testosterone Levels, baseline / Serum Testosterone Levels, 0 day: individual baboon; for Serum Testosterone Levels, 6 days / Serum Testosterone Levels, 6 days, group mean: 1.5 mg/kg daily, day 6; for Serum Testosterone Levels, 6 days / Serum Testosterone Levels, 12 days: 1.5 mg/kg; for Serum Testosterone Levels, 12 days: 1.5 mg/kg for 12 consecutive days; for Serum Testosterone Levels, 12 days / Serum Testosterone Levels, 12 days, group mean: day 12; for Serum Testosterone Levels, wash-out / Serum Testosterone Levels, wash-out, group mean: 7 days after the last treatment; for Serum Testosterone Levels, baseline: baseline Dec. 3, 2001, before treatment; for Serum Testosterone Levels, 0 day / Serum Testosterone Levels, 0 day, group mean: day 0, before first dose; for Serum Testosterone Levels, 6 days, group mean / Serum Testosterone Levels, 12 days, group mean / Serum Testosterone Levels, wash-out, group mean / Serum Testosterone Levels, baseline, group mean / Serum Testosterone Levels, 0 day, group mean: mean of 3 baboons; for Serum Testosterone Levels, baseline, group mean: before treatment
# Source text: (§4) The samples analyzed were sera taken on the day of first treatment before being given test article (day 0), after 12 days of treatment (day 12) and 7 days after the last treatment (end or wash-out).
# serum cholesterol = conditions: baboons, 1.5 mg/kg for 12 days
# serum prolactin (PRL) = assay: Serum prolactin in male baboons; conditions: 1.5 mg/kg for 12 days
# Source text: as §4
# [5] = three month dosing, Androxal arms combined, Testim arm
smiles,measurement,setting,value
"CCN(CC)CCOc1ccc(/C(=C(\Cl)c2ccccc2)c2ccccc2)cc1 [Androxal™, trans-clomiphene]",serum total testosterone in the follow-up period,total testosterone; 7-10 days after cessation of daily oral treatment,unexpectedly remained high
same,mean total testosterone,"total testosterone; hypogonadal men, Androxal 50 mg, after 15 days",589 ± 172 ng/dL
same,mean increase in testosterone from baseline,"total testosterone; hypogonadal men, Androxal high dose (50 mg)",294 ng/dL
same,mean increase in testosterone from baseline,"total testosterone; hypogonadal men, Androxal low dose (12.5 mg)",169 ng/dL
same,mean increase in testosterone from baseline,"total testosterone; hypogonadal men, Androxal mid dose (25 mg)",247 ng/dL
same,serum LH in the follow-up period,serum LH; 7-10 days after cessation of treatment,remained high
same,serum levels of LH during treatment,"serum LH; hypogonadal men, two weeks treatment",statistically significant increase
same,serum levels of FSH,serum FSH,boosts serum FSH which remains high during the follow-up period
same,DHT/TT ratio,[1],0.83
same,"reduction in triglycerides, average",triglycerides,19.1%
same,side effects different than placebo,[2],no side effects noted
same,"Median Morning Testosterone, Baseline T","morning testosterone; Androxal 12.5 mg (n = 26), text uses ng/dl",202
same,"Median Morning Testosterone, Final T",morning testosterone; Androxal 12.5 mg (n = 26),432
same,"Median Morning Testosterone, Baseline T",morning testosterone; Androxal 25 mg (n = 30),202
same,"Median Morning Testosterone, Final T",morning testosterone; Androxal 25 mg (n = 30),416
same,men exceeding the normal maximum level of testosterone (1100 ng/dl),morning testosterone; [5],no men
same,men in the normal range for morning testosterone levels (300-1100 ng/dl),morning testosterone; [5],69.9%
same,change in sperm counts from baseline (in words),sperm counts; end of the three month dosing period,no statistically significant changes
same,median sperm count,"sperm counts; end of three month dosing, Androxal arms combined, Testim arm",93.8 million sperm/ml
same,tolerability compared to placebo,[3],generally well tolerated
same,mean serum testosterone,serum testosterone,statistically significant rise
same,LH and FSH levels,LH and FSH,significantly increased both LH and FSH
same,tolerability,[4],well tolerated by all subjects
same,24 hr T <300 ng/dl @ Week 6,testosterone; Androxal 6.25 mg,4 out of 12
same,Any T >1100 ng/dl @ Week 6,testosterone; Androxal 6.25 mg,0 out of 12
same,24 hr T <300 ng/dl @ Week 6,testosterone; Androxal 12.5 mg,2 out of 10
same,Any T >1100 ng/dl @ Week 6,testosterone; Androxal 12.5 mg,0 out of 10
same,24 hr T <300 ng/dl @ Week 6,testosterone; Androxal 25 mg,0 out of 13
same,Any T >1100 ng/dl @ Week 6,testosterone; Androxal 25 mg,0 out of 13
same,morning testosterone after the seven day follow-up (in words),"testosterone; all Androxal arms (6.25, 12.5, 25 mg)",improved morning testosterone compared to baseline
"CCN(CC)CCOc1ccc(C(=C(Cl)c2ccccc2)c2ccccc2)cc1 [Clomid, clomiphene citrate]",effect on total serum testosterone (in words),total serum testosterone,more variable total testosterone levels on day 6 and later
same,"Serum Testosterone Levels, 6 days",total serum testosterone; listed as CLO,940.97 ng/dL and 585.92 ng/dL and 151.12 ng/dL
same,"Serum Testosterone Levels, 12 days",total serum testosterone; listed as CLO,891.5 ng/dL and 555.6 ng/dL and 318.9 ng/dL
same,"Serum Testosterone Levels, wash-out",total serum testosterone; listed as CLO,150.9 ng/dL and 316.3 ng/dL and 143.6 ng/dL
same,"Serum Testosterone Levels, baseline",total serum testosterone; listed as CLO,79.01 ng/dL and 97.55 ng/dL and 158.06 ng/dL
same,"Serum Testosterone Levels, 0 day",total serum testosterone; listed as CLO,76.15 ng/dL and 305.24 ng/dL and 102.94 ng/dL
same,"Serum Testosterone Levels, 6 days, group mean",total serum testosterone,559.3 ng/dL
same,"Serum Testosterone Levels, 12 days, group mean",total serum testosterone,588.7 ng/dL
same,"Serum Testosterone Levels, wash-out, group mean",total serum testosterone,203.6 ng/dL
same,"Serum Testosterone Levels, baseline, group mean",total serum testosterone,111.5 ng/dL
same,"Serum Testosterone Levels, 0 day, group mean",total serum testosterone,161.4 ng/dL
same,effect on serum cholesterol levels (in words),serum cholesterol,slight increase
same,ALT/SGPT,in vivo,out of range low at the end of the study
same,BUN and BUN/creatinine,in vivo,altered during the study
same,serum carbon dioxide,in vivo,higher than reference values
same,serum glucose,"in vivo, 1.5 mg/kg",within the normal range
"CCN(CC)CCOc1ccc(/C(=C(/Cl)c2ccccc2)c2ccccc2)cc1 [Enclomid, trans-Clomid]",effect on total serum testosterone (in words),total serum testosterone,significantly and statistically raised total serum testosterone on days 6 and 12
same,"Serum Testosterone Levels, 6 days",total serum testosterone,1223.8 ng/dL and 1128.2 ng/dL and 1081.1 ng/dL
same,"Serum Testosterone Levels, 12 days",total serum testosterone,633.6 ng/dL and 1466 ng/dL and 1166 ng/dL
same,"Serum Testosterone Levels, wash-out",total serum testosterone,307.2 ng/dL and 399.2 ng/dL and 271 ng/dL
same,"Serum Testosterone Levels, baseline",total serum testosterone,64.57 ng/dL and 166.86 ng/dL and 170.45 ng/dL
same,"Serum Testosterone Levels, 0 day",total serum testosterone,74.96 ng/dL and 133.59 ng/dL and 106.47 ng/dL
same,"Serum Testosterone Levels, 6 days, group mean",total serum testosterone,1144.4 ng/dL
same,"Serum Testosterone Levels, 12 days, group mean",total serum testosterone,1088.5 ng/dL
same,"Serum Testosterone Levels, wash-out, group mean",total serum testosterone,325.8 ng/dL
same,"Serum Testosterone Levels, baseline, group mean",total serum testosterone,134.0 ng/dL
same,"Serum Testosterone Levels, 0 day, group mean",total serum testosterone,105.0 ng/dL
same,decrease in serum cholesterol levels,serum cholesterol,8%
same,ALT/SGPT,in vivo,within the normal range
same,BUN and BUN/creatinine,in vivo,altered during the study
same,per cent of granulocytes in the blood,in vivo,lowering the per cent of granulocytes in the blood
same,platelet count,in vivo,pushed the platelet count to its normal male level
same,serum alkaline phosphatase (ALP),in vivo,decreased in value
same,serum anion gap,in vivo,raised this parameter towards normal values
same,lymphocyte count and per cent lymphocytes,"in vivo, 1.5 mg/kg",Both the count and per cent lymphocytes in the population increase
same,red blood cell population,"in vivo, 1.5 mg/kg",substantive effects on the red blood cell population
same,serum glucose,"in vivo, 1.5 mg/kg",no increases with treatment
same,serum prolactin (PRL) during the study,serum prolactin (PRL),decrease in serum prolactin (PRL)
"CCN(CC)CCOc1ccc(/C(=C(\Cl)c2ccccc2)c2ccccc2)cc1 [Zuclomid, cis-Clomid]",effect on total serum testosterone (in words),total serum testosterone,did not raise total serum testosterone to any extent
same,"Serum Testosterone Levels, 6 days",total serum testosterone,137.51 ng/dL and 169.98 ng/dL and 227.95 ng/dL
same,"Serum Testosterone Levels, 12 days",total serum testosterone,314.5 ng/dL and 406.1 ng/dL and 353.0 ng/dL
same,"Serum Testosterone Levels, wash-out",total serum testosterone,359.7 ng/dL and 860.5 ng/dL and 274.1 ng/dL
same,"Serum Testosterone Levels, baseline",total serum testosterone,124.84 ng/dL and 104.66 ng/dL and 282.29 ng/dL
same,"Serum Testosterone Levels, 0 day",total serum testosterone,210.4 ng/dL and 67.37 ng/dL and 904.82 ng/dL
same,"Serum Testosterone Levels, 6 days, group mean",total serum testosterone,178.5 ng/dL
same,"Serum Testosterone Levels, 12 days, group mean",total serum testosterone,357.9 ng/dL
same,"Serum Testosterone Levels, wash-out, group mean",total serum testosterone,498.1 ng/dL
same,"Serum Testosterone Levels, baseline, group mean",total serum testosterone,170.6 ng/dL
same,"Serum Testosterone Levels, 0 day, group mean",total serum testosterone,394.2 ng/dL
same,increase in serum cholesterol levels,serum cholesterol,22%
same,hematocrit,"baboons, 1.5 mg/kg for 12 days",demonstrated a statistical difference
same,red blood cell population,"baboons, 1.5 mg/kg for 12 days",substantive effects on the red blood cell population
same,serum glucose,"baboons, 1.5 mg/kg for 12 days",within the normal range
same,serum carbon dioxide,"baboons, day 12",higher than reference values
same,serum alkaline phosphatase (ALP),"baboons, following treatment",not elevated
same,ALT/SGPT,"baboons, over the treatment period / end of the study",within the normal range
